Experimental data taken from PubChem BioAssay AID1996.
≈ marks a conversion by molar mass, not a printed value.

Settings: buffer; pH 7.4; 200.0 µM

| Compound | solubility kinetic [µg/mL] |
| --- | --- |
| Cc1ccsc1CNCCc1ccccc1F | 27.1 (≈ 109 µM) |
| Fc1ccc2nc(C(F)(F)F)cc(N3CCOCC3)c2c1 | 11.3 (≈ 37.6 µM) |
| Cc1ccc(SCC(=O)c2ccc[nH]2)cc1 | 24.6 (≈ 106 µM) |
| CCN(C(=O)COC(=O)c1cnccn1)c1cccc2ccccc12 | > 50.3 |
| COCCN1C(=O)NC(=O)/C(=C\c2ccc(F)cc2)C1=O | 33.5 (≈ 115 µM) |
| COc1ccc(S(=O)(=O)N2CCNCC2)cc1 | 31.1 (≈ 121 µM) |
| O=C(CSc1ncccn1)N1CCCC1 | > 33.5 |
| COc1ccc(CCNC2=CC(=O)CC(C)(C)C2)cc1 | 40.4 (≈ 148 µM) |
| Cc1cc(C(=O)Nc2ccccc2N2CCOCC2)c(C)o1 | 10.3 (≈ 34.3 µM) |
| Cc1cc(C(=O)NNC(=O)C(CCC(N)=O)NS(=O)(=O)c2ccc(Cl)cc2)c(C)o1 (stereo not given) | > 68.5 |
| Cc1ccc(CC2C(=O)N(c3ccc(F)cc3)C(=O)C2C)cc1 (stereo not given) | 3.3 (≈ 10.6 µM) |
| COc1ccc(C2C(C(C)=O)=C(O)C(=O)N2c2ccc(F)cc2)cc1 (stereo not given) | 48.5 (≈ 142 µM) |
| CN(C)c1cccc(C(=O)NCC(c2ccco2)N(C)C)c1 (stereo not given) | > 45.2 |
| O=[N+]([O-])c1ccc(C(=S)N2CCCC2)cc1 | > 35.4 |
| CN(Cc1ccccc1)C(=O)COC(=O)C12CC3CC(CC(Br)(C3)C1)C2 | 18.8 (≈ 44.7 µM) |
| N#CCCN(Cc1ccccc1)S(=O)(=O)c1cccs1 | > 46 |
| COc1ccccc1/C=N/OC(=O)c1ccc(F)cc1 | 0.7 (≈ 2.56 µM) |
| CC(C)CNC(=O)C(=O)NCCCN1CCOCC1 | > 40.7 |
| Cc1ccc(NC(=O)CNC(=O)c2cccs2)nc1 | > 41.3 |
| O=C(c1ccc(Br)cc1)N1CCCc2ccccc21 | 14 (≈ 44.3 µM) |

| Compound | solubility kinetic [µg/mL] |
| --- | --- |
| N#Cc1c(/N=C/c2ccc(-c3ccccc3C(=O)O)o2)sc2c1CCCC2 | > 56.5 |
| CCCN1CCN(C(=O)c2oc3c(Cl)cccc3c2C)CC1 | 35.7 (≈ 111 µM) |
| CN(C)CCCN1C(=O)C2CCc3[nH]c4ccccc4c3C2C1=O (stereo not given) | > 48.8 |
| Cc1ccc(C)c(-n2ccnc2SCC(N)=O)c1 | > 39.2 |
| Cc1cc(NS(=O)(=O)c2cccc([N+](=O)[O-])c2)no1 | 32.5 (≈ 115 µM) |
| CCC(C(=O)NC(CC(=O)O)c1ccc(Cl)cc1)c1ccccc1 (stereo not given) | > 51.9 |
| CC(C)NC(=O)CCCc1c[nH]c2ccccc12 | > 36.7 |
| COc1ccc(CNc2nc3ccccc3n2C)c(OC)c1 | > 44.6 |
| CC1CN(C(=O)COC(=O)c2ccc(Cl)nc2)CC(C)O1 (stereo not given) | 42.3 (≈ 135 µM) |
| O=C(COC(=O)CNC(=O)c1ccccc1)NCc1ccc2c(c1)OCO2 | > 55.6 |
| CN(C(=O)c1ccco1)c1ccccc1C(=O)O | > 36.8 |
| COCc1cc(=O)[nH]c(SCCS(=O)(=O)c2ccc(C)cc2)n1 | > 53.2 |
| Cn1c(=O)c(C(=O)NCCCc2ccccc2)c(O)c2ccccc21 | < 0.4 |
| CCCN1CCC(NC(=O)Cc2ccc(C)cc2)CC1 | 39.7 (≈ 145 µM) |
| CCc1ccc(OCC(=O)OC(C)C(=O)NC2CC2)cc1 (stereo not given) | > 43.7 |
| O=S1(=O)CCN(C(CCO)c2cccc(C(F)(F)F)c2)CC1 (stereo not given) | > 50.6 |
| CN(C)c1ccc(/C=C/c2nc3ccccc3c(=O)n2CCO)cc1 | 40.7 (≈ 121 µM) |
| Cc1cc(C)cc(OC(=O)c2cccnc2)c1 | 30.6 (≈ 135 µM) |
| CCC(=O)Nc1ccc(NC(=O)c2oc3ccccc3c2C)cc1 | 1.2 (≈ 3.72 µM) |
| CCCCC(=O)Nc1ccccc1CC | > 30.8 |

| Compound | solubility kinetic [µg/mL] |
| --- | --- |
| O=C(O)C(=O)O.O=C(c1ccco1)N1CCN(Cc2ccccc2F)CC1 | 33.9 |
| COc1cc(/C=C/C(=O)Nc2ccc(OC)c(S(=O)(=O)N3CCOCC3)c2)ccc1OCC#N | 7.1 (≈ 14.6 µM) |
| Cc1cccc(N=C2C(=O)Nc3c(Cl)cccc32)c1 | 32.4 (≈ 120 µM) |
| NS(=O)(=O)c1ccc(Sc2nc3ccccc3s2)c([N+](=O)[O-])c1 | 1.7 (≈ 4.63 µM) |
| COCCCNC(=O)c1cc(S(=O)(=O)NCCCN2CCCC2=O)ccc1Cl | > 64.8 |
| COc1ccc(OCC(=O)NCCCn2ccnc2)cc1.Cl | > 48.9 |
| CCN(CC)C(=O)Nc1ccc(Br)cc1 | > 40.7 |
| COc1ccccc1/C=N/OCc1cc(C(C)=O)ccc1OC | 8.4 (≈ 26.8 µM) |
| CCCCc1nc(C(N)=O)c2[nH]c(=O)n(-c3ccccc3F)c2n1 | 3.7 (≈ 11.2 µM) |
| Nc1cccc2c1C(=O)N(Cc1cccc(Cl)c1)C2=O | < 0.3 |
| Cn1c(=O)oc2cc(S(=O)(=O)Nc3ccc(Cl)cc3)ccc21 | 4.1 (≈ 12.1 µM) |
| O=C(CCN1CCOCC1)Nc1ccc(F)cc1 | 30.1 (≈ 119 µM) |
| CCOC(=O)c1ccc(NC(=O)CC2SC3=NCCN3C2=O)cc1 (stereo not given) | > 52.1 |
| CCOc1ccc(C2NC(=O)c3ccccc3O2)cc1OC (stereo not given) | 3.3 (≈ 11 µM) |
| COCCNC(=O)Cc1c(C)c2c(cc(C)c3c(C(C)(C)C)coc32)oc1=O | 3.2 (≈ 8.3 µM) |
| CCC[C@@H]1C[C@@H](C(=O)N[C@@H]([C@H]2O[C@H](SC)[C@H](O)[C@@H](O)[C@@H]2O)[C@@H](C)O)N(C)C1.Cl | > 66.5 |
| CCOC(=O)C1CCCN(c2c(NCCc3cccc(C)c3)c(=O)c2=O)C1 (stereo not given) | 18 (≈ 48.6 µM) |
| CCCCNC(=O)COC(=O)c1cc(C)oc1C | > 38 |
| CNC(=S)N1C2CCCC1CC(NC(=O)c1ccc(F)cc1)C2 (stereo not given) | 21.8 (≈ 65 µM) |
| COc1cc(C(=S)N2CCCC2)ccc1OCc1ccc(C)cc1 | < 0.7 |
